What was measured:
[1] = molecular target: T1, Beta-1 adrenergic receptor (Homo sapiens, UniProt P08588); assay: In vitro agonist activity measured by increase in cAMP levels in chinese hamster ovary cells (CHO) cells expressing human Beta-1 adrenergic receptor; type: functional, cell-based
Target sequence in this assay (P08588 whole entry): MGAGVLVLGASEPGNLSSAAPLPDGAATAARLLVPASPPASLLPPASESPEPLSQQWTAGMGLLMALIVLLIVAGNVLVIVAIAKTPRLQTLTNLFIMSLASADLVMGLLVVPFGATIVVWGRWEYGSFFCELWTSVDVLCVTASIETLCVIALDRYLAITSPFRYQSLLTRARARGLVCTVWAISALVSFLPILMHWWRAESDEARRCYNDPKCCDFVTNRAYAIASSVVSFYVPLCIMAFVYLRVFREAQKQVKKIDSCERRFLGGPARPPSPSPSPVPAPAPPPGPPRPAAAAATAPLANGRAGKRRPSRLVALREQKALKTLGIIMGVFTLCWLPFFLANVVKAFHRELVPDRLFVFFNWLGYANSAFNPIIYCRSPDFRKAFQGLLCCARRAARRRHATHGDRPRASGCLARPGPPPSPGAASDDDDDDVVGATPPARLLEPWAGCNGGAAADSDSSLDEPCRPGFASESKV

[2] = molecular target: T2, Beta-2 adrenergic receptor (Homo sapiens, UniProt P07550); assay: In vitro agonist activity measured by increase in cAMP levels in chinese hamster ovary cells (CHO) cells expressing human Beta-2 adrenergic receptor; type: functional, cell-based
T2 sequence (P07550 whole entry): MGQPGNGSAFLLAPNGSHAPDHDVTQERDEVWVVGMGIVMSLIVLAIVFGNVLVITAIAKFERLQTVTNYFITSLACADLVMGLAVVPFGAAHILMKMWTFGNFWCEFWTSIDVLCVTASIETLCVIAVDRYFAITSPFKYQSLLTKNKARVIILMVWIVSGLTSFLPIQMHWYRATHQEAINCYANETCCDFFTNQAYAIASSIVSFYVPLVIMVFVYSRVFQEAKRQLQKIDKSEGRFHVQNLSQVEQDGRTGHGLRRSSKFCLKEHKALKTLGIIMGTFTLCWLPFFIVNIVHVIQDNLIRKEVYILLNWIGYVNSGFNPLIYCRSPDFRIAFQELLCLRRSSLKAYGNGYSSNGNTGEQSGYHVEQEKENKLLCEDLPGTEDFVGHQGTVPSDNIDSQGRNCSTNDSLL

[3] = molecular target: T1, Beta-1 adrenergic receptor; assay: Intrinsic activity (IA) for Beta-1 adrenoceptor agonism was determined as the maximal response with respect to the maximal response of isoproterenol at […].; type: functional
Target sequence in this assay (P08588 whole entry, looked up): as the sequence (P08588 whole entry) above

[4] = molecular target: T3, Beta-3 adrenergic receptor (Homo sapiens, UniProt P13945); assay: In vitro agonist activity by increase in cAMP levels in chinese hamster ovary cells (CHO) cells stimulated by human Beta-3 adrenergic receptor was determined; IA is inactive; type: functional, cell-based
Target sequence in this assay (P13945 whole entry): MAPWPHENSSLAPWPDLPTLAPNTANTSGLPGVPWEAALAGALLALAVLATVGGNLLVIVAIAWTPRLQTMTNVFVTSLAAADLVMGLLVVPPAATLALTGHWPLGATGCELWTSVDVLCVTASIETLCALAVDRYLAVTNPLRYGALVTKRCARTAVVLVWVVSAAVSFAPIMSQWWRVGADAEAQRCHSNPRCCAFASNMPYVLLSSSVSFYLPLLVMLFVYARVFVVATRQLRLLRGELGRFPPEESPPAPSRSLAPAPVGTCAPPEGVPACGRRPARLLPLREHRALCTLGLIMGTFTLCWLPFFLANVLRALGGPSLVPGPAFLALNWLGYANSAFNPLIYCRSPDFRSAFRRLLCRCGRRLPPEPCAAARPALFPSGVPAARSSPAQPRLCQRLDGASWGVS

[5] = molecular target: T3, Beta-3 adrenergic receptor; assay: Intrinsic activity (IA) for Beta-3 adrenergic receptor agonism was determined as the maximal response with respect to the maximal response of isoproterenol at […].
Target sequence in this assay (P13945 whole entry, looked up): as the sequence (P13945 whole entry) above

[6] = molecular target: T2, Beta-2 adrenergic receptor; assay: In vitro agonist activity by increase in cAMP levels in chinese hamster ovary cells (CHO) cells stimulated by human Beta-2 Adrenoceptor; type: functional, cell-based
[7] = molecular target: T1, Beta-1 adrenergic receptor; assay: In vitro agonist activity by increase in cAMP levels in chinese hamster ovary cells (CHO) cells stimulated by human Beta-1 Adrenoceptor was determined; type: functional, cell-based
Target sequence in this assay (P08588 whole entry): as the sequence (P08588 whole entry) above

[8] = molecular target: T3, Beta-3 adrenergic receptor; assay: In vitro agonist activity by increase in cAMP levels in chinese hamster ovary cells (CHO) cells stimulated by human Beta-3 Adrenoceptor was determined; type: functional, cell-based
Target sequence in this assay (P13945 whole entry): as the sequence (P13945 whole entry) above

[9] = molecular target: T3, Beta-3 adrenergic receptor; assay: Intrinsic activity (IA) for Beta-3 adrenoceptor agonism was determined as the maximal response with respect to the maximal response of isoproterenol at […].; type: functional
Target sequence in this assay (P13945 whole entry, looked up): as the sequence (P13945 whole entry) above

[10] = molecular target: T2, Beta-2 adrenergic receptor; assay: (§1) Compound was tested for the antagonistic activity against Beta-2 adrenergic receptor; type: functional
[11] = molecular target: T1, Beta-1 adrenergic receptor; assay: Compound was tested for the antagonistic activity against Beta-1 adrenergic receptor; type: functional
Target sequence in this assay (P08588 whole entry): as the sequence (P08588 whole entry) above

Mus musculus = assay: In vivo activity of compound with an increase in thermogenesis in the Beta 3 transgenic mice at an ip dose of 10 mg/kg was determined; type: functional; conditions: route intraperitoneal
[12] = molecular target: T2, Beta-2 adrenergic receptor; assay: as §1

Row | SMILES | EC50 [1] | EC50 [2] | other results
1 | O[C@@H](CNCC1CCN(c2ncccc2C(F)(F)F)CC1)COc1cccc2[nH]c3ccccc3c12 | – | – | EC50 [4]: Not Active; EC50 [5]: Not Active
2 | O[C@@H](CNCC1CCN(CCC(F)(F)F)CC1)COc1cccc2[nH]c3ccccc3c12 | 417 nM | > 1000 nM | –
3 | O=C(Nc1ccccc1)Nc1ccc(S(=O)(=O)N2CCC(CNC[C@H](O)COc3ccc(O)cc3)CC2)cc1 | 489 nM | – | –
4 | O=C(NCc1cc(F)ccc1F)Nc1ccc(S(=O)(=O)N2CCC(CNC[C@H](O)COc3ccc(O)c(F)c3)CC2)cc1 | 525 nM | – | –
5 | O=C(O)c1cccc(NC(=O)N2CCC(CNC[C@H](O)COc3cccc4[nH]c5ccccc5c34)CC2)c1 | – | – | EC50 [6]: > 1000 nM; EC50 [7]: > 1000 nM; EC50 [8]: 70 nM; Intrinsic activity [3]: 0.05; Intrinsic activity [9]: 0.29
6 | CS(=O)(=O)Nc1cc(OC[C@@H](O)CNCC2CCN(S(=O)(=O)c3ccc(NC(=O)NCc4cc(F)ccc4F)cc3)CC2)ccc1O | 353 nM | 454 nM | IC50 [10]: 268 nM; Intrinsic activity [3]: 0.49; IC50 [11]: 6160 nM; Thermogenesis (Mus musculus): 18
7 | CCCCCCCCNC(=O)Nc1ccc(S(=O)(=O)N2CCC(CNC[C@H](O)COc3ccc(O)cc3)CC2)cc1 | 887 nM | – | IC50 [12]: 4 nM; IC50 [11]: 27 nM; Thermogenesis (Mus musculus): 30
8 | CCCCCCN1CCC(CNC[C@H](O)COc2cccc3[nH]c4ccccc4c23)CC1 | > 1000 nM | > 1000 nM | –

The next lines start with results.

Row | EC50 [1] | EC50 [2] | SMILES | other results
9 | 10900 nM | – | CCCCCCNC(=O)Nc1ccc(S(=O)(=O)N2CCC(CNC[C@H](O)COc3ccc(O)cc3)CC2)cc1 | –
10 | 390 nM | 680 nM | CCCCCCCCNC(=O)Nc1ccc(S(=O)(=O)N2CCC(CNC[C@H](O)COc3ccc(O)c4c3CCC(=O)N4)CC2)cc1 | Intrinsic activity [3]: 0.63
11 | 1020 nM | – | O=C(Nc1ccc(S(=O)(=O)N2CCC(CNC[C@H](O)COc3ccc(O)cc3)CC2)cc1)NC1CCCCC1 | –
12 | 2050 nM | – | O=C(NCCCc1cccs1)Nc1ccc(S(=O)(=O)N2CCC(CNC[C@H](O)COc3ccc(O)cc3)CC2)cc1 | –
13 | > 1000 nM | > 1000 nM | CCCCCCNC(=O)Nc1ccc(S(=O)(=O)N2CCC(CNC[C@H](O)COc3cccc4[nH]c5ccccc5c34)CC2)cc1 | –
14 | 1010 nM | – | O=C(NCc1cc(F)ccc1F)Nc1ccc(S(=O)(=O)N2CCC(CNC[C@H](O)COc3ccc(O)cc3)CC2)cc1 | –
